According to PubChem BioAssay (NCI):
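Values below derive from 48-hour exposures of cells grown in 96-well plates, with endpoints linearly interpolated between the two concentrations bracketing the appropriate inhibition level. Abbreviation: GI50, concentration required for 50% inhibition of growth. TGI is the concentration that stops growth completely.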

How the values were obtained:
Assay in all cases: NCI anticancer screen, dose series, 48 h
786-0 renal = test system: 786-0 renal
A498 renal = test system: A498 renal
A549 NSCLC = test system: A549 NSCLC
ACHN renal = test system: ACHN renal
BT-549 breast = test system: BT-549 breast
CAKI-1 renal = test system: CAKI-1 renal
CCRF-CEM leukemia = test system: CCRF-CEM leukemia
COLO 205 colon = test system: COLO 205 colon
DU-145 prostate = test system: DU-145 prostate
EKVX NSCLC = test system: EKVX NSCLC
HCC-2998 colon = test system: HCC-2998 colon
HCT-116 colon = test system: HCT-116 colon
HCT-15 colon = test system: HCT-15 colon
HL-60(TB) leukemia = test system: HL-60(TB) leukemia
HOP-62 NSCLC = test system: HOP-62 NSCLC
HOP-92 NSCLC = test system: HOP-92 NSCLC
HS 578T breast = test system: HS 578T breast
HT29 colon = test system: HT29 colon
IGROV1 ovarian = test system: IGROV1 ovarian
K-562 leukemia = test system: K-562 leukemia
KM12 colon = test system: KM12 colon
LOX IMVI melanoma = test system: LOX IMVI melanoma
M14 melanoma = test system: M14 melanoma
MALME-3M melanoma = test system: MALME-3M melanoma
MCF7 breast = test system: MCF7 breast
MDA-MB-231 breast = test system: MDA-MB-231 breast
MDA-MB-435 = test system: MDA-MB-435
MOLT-4 leukemia = test system: MOLT-4 leukemia
NCI-H226 lung = test system: NCI-H226 lung
NCI-H23 lung = test system: NCI-H23 lung
NCI-H460 lung = test system: NCI-H460 lung
NCI-H522 lung = test system: NCI-H522 lung
NCI/ADR-RES ovarian = test system: NCI/ADR-RES ovarian
OVCAR-4 ovarian = test system: OVCAR-4 ovarian
OVCAR-5 ovarian = test system: OVCAR-5 ovarian
OVCAR-8 ovarian = test system: OVCAR-8 ovarian
PC-3 prostate = test system: PC-3 prostate
RPMI-8226 leukemia = test system: RPMI-8226 leukemia
RXF 393 renal = test system: RXF 393 renal
SF-268 CNS = test system: SF-268 CNS
SF-295 CNS = test system: SF-295 CNS
SF-539 CNS = test system: SF-539 CNS
SK-MEL-2 melanoma = test system: SK-MEL-2 melanoma
SK-MEL-28 melanoma = test system: SK-MEL-28 melanoma
SK-MEL-5 melanoma = test system: SK-MEL-5 melanoma
SK-OV-3 ovarian = test system: SK-OV-3 ovarian
SN12C renal = test system: SN12C renal
SNB-19 CNS = test system: SNB-19 CNS
SNB-75 CNS = test system: SNB-75 CNS
SR leukemia = test system: SR leukemia
SW-620 colon = test system: SW-620 colon
T-47D breast = test system: T-47D breast
TK-10 renal = test system: TK-10 renal
U251 CNS = test system: U251 CNS
UACC-257 melanoma = test system: UACC-257 melanoma
UACC-62 melanoma = test system: UACC-62 melanoma
UO-31 renal = test system: UO-31 renal

O=C(NNc1nc2cc(F)c(F)cc2n2c(CN3CC4CNCC4C3)ccc12)c1ncccn1 (stereo not drawn)
GI50 (786-0 renal): 2180 nM
TGI (786-0 renal): 9.02 µM
GI50 (A498 renal): 2360 nM
TGI (A498 renal): 8.64 µM
GI50 (A549 NSCLC): 2820 nM
TGI (A549 NSCLC): 13.2 µM
GI50 (ACHN renal): 512 nM
TGI (ACHN renal): 10.7 µM
GI50 (BT-549 breast): 4.47 µM
TGI (BT-549 breast): 18.7 µM
GI50 (CAKI-1 renal): 756 nM
TGI (CAKI-1 renal): 11.9 µM
GI50 (CCRF-CEM leukemia): 1860 nM
TGI (CCRF-CEM leukemia): > 100 µM
GI50 (COLO 205 colon): 2810 nM
TGI (COLO 205 colon): 11.8 µM
GI50 (DU-145 prostate): 2310 nM
TGI (DU-145 prostate): 16.1 µM
GI50 (EKVX NSCLC): 1790 nM
TGI (EKVX NSCLC): 17.7 µM
GI50 (HCC-2998 colon): 4.14 µM
TGI (HCC-2998 colon): 19.3 µM
GI50 (HCT-116 colon): 1600 nM
TGI (HCT-116 colon): 14.5 µM
GI50 (HCT-15 colon): 526 nM
TGI (HCT-15 colon): 25.1 µM
GI50 (HL-60(TB) leukemia): 2620 nM
TGI (HL-60(TB) leukemia): 10.7 µM
GI50 (HOP-62 NSCLC): 1040 nM
TGI (HOP-62 NSCLC): 11.2 µM
GI50 (HOP-92 NSCLC): 6.46 µM
TGI (HOP-92 NSCLC): 28.3 µM
GI50 (HS 578T breast): 5.98 µM
TGI (HS 578T breast): 37 µM
GI50 (HT29 colon): 3.76 µM
TGI (HT29 colon): 32.2 µM
GI50 (IGROV1 ovarian): 1850 nM
TGI (IGROV1 ovarian): 12.3 µM
GI50 (K-562 leukemia): 2400 nM
TGI (K-562 leukemia): 74.5 µM
GI50 (KM12 colon): 3.18 µM
TGI (KM12 colon): 22.8 µM
GI50 (LOX IMVI melanoma): 1060 nM
TGI (LOX IMVI melanoma): 5.21 µM
GI50 (M14 melanoma): 1140 nM
TGI (M14 melanoma): 9.42 µM
GI50 (MALME-3M melanoma): 2530 nM
GI50 (MCF7 breast): 3.07 µM
TGI (MCF7 breast): 14 µM
GI50 (MDA-MB-231 breast): 3.64 µM
TGI (MDA-MB-231 breast): 21 µM
GI50 (MDA-MB-435): 3.85 µM
TGI (MDA-MB-435): 16.4 µM
GI50 (MOLT-4 leukemia): 3.14 µM
TGI (MOLT-4 leukemia): > 100 µM
GI50 (NCI-H226 lung): 2770 nM
TGI (NCI-H226 lung): 18.1 µM
GI50 (NCI-H23 lung): 3.48 µM
TGI (NCI-H23 lung): 16.2 µM
GI50 (NCI-H460 lung): 567 nM
TGI (NCI-H460 lung): 6.99 µM
GI50 (NCI-H522 lung): 4.37 µM
TGI (NCI-H522 lung): 21.2 µM
GI50 (NCI/ADR-RES ovarian): 5.29 µM
TGI (NCI/ADR-RES ovarian): 22.7 µM
GI50 (OVCAR-4 ovarian): 2800 nM
TGI (OVCAR-4 ovarian): 17.9 µM
GI50 (OVCAR-5 ovarian): 5.08 µM
TGI (OVCAR-5 ovarian): 25.4 µM
GI50 (OVCAR-8 ovarian): 2180 nM
TGI (OVCAR-8 ovarian): 12.8 µM
GI50 (PC-3 prostate): 3.22 µM
TGI (PC-3 prostate): 39.6 µM
GI50 (RPMI-8226 leukemia): 3.69 µM
TGI (RPMI-8226 leukemia): 55.7 µM
GI50 (RXF 393 renal): 2000 nM
TGI (RXF 393 renal): 9.33 µM
GI50 (SF-268 CNS): 1870 nM
TGI (SF-268 CNS): 14.8 µM
GI50 (SF-295 CNS): 847 nM
TGI (SF-295 CNS): 12.5 µM
GI50 (SF-539 CNS): 2760 nM
TGI (SF-539 CNS): 9.5 µM
GI50 (SK-MEL-2 melanoma): 4.23 µM
TGI (SK-MEL-2 melanoma): 20.7 µM
GI50 (SK-MEL-28 melanoma): 2830 nM
TGI (SK-MEL-28 melanoma): 14.8 µM
GI50 (SK-MEL-5 melanoma): 1650 nM
TGI (SK-MEL-5 melanoma): 4.4 µM
GI50 (SK-OV-3 ovarian): 1960 nM
TGI (SK-OV-3 ovarian): 14.8 µM
GI50 (SN12C renal): 3.06 µM
TGI (SN12C renal): 13.8 µM
GI50 (SNB-19 CNS): 3.53 µM
TGI (SNB-19 CNS): 29.1 µM
GI50 (SNB-75 CNS): 2190 nM
TGI (SNB-75 CNS): 13.6 µM
GI50 (SR leukemia): 1530 nM
TGI (SR leukemia): > 100 µM
GI50 (SW-620 colon): 2480 nM
TGI (SW-620 colon): 16.1 µM
GI50 (T-47D breast): 3.08 µM
TGI (T-47D breast): 14.2 µM
GI50 (TK-10 renal): 7.89 µM
TGI (TK-10 renal): 29.7 µM
GI50 (U251 CNS): 1900 nM
TGI (U251 CNS): 14.6 µM
GI50 (UACC-257 melanoma): 2800 nM
TGI (UACC-257 melanoma): 9.36 µM
GI50 (UACC-62 melanoma): 2570 nM
TGI (UACC-62 melanoma): 11.6 µM
GI50 (UO-31 renal): 448 nM
TGI (UO-31 renal): 10.1 µM
